{"source": "patent US20070155663A1", "about": "“Use of chemokine receptor agonists for stem cell transplantation” (priority 2003, published 2007)", "test_system": "FDCP-Mix cells", "test": "in vitro chemotactic assay of FDCP-Mix cells in 96-transwell chambers", "assay_type": "cell-based", "conditions": "migration for 14 h", "procedure": "Figure: FDCP-Mix cells were subjected to in vitro chemotactic assays. Chemotaxis was assessed in 96-transwell chambers (Neuroprobe, Cabin John, MD) by using polyvinylpyrrolidone-free polycarbonate membranes (Nucleopore, Neuroprobe) with 5-μm pores. Four hundred microliters of IMDM medium was added to the bottom of the well, and was supplemented with varying concentrations of SDF-1α or MIP-3α (R&D Systems). 100 μl of IMDM medium containing 50.000 FDCP-Mix cells were added to the upper wells of the chemotaxis chamber. Additionally 100 μl of medium either with no supplement or supplemented with MIP-3α was added to the upper well. […] Simultaneously FDCP-Mix progenitor cells were coincubated with MIP-3α in concentrations of 10 to 1000 ng/ml medium.", "data": [{"substance": "MIP-3α: Macrophage Inflammatory Protein - 3α, CCR6 ligand (R&D Systems)", "values": [{"measurement": "Chemotactic migration of FDCP-Mix progenitor cells", "setting": "MIP-3a in the bottom well, 10 to 1000 ng/ml medium", "value": "does not induce chemotactic migration"}, {"measurement": "Sensitivity of FDCP-Mix cells to migrate to SDF-1α", "setting": "SDF-1a 10 ng/ml in bottom well, cells coincubated with agonist (MIP-3α 10 to 1000 ng/ml medium)", "value": "does increase the sensitivity"}]}]}
